In PubChem BioAssay (NCI) one finds GI50 and TGI data, which are given here for seven compounds.

Holding throughout (experiment): NCI tumour cell line growth inhibition, 48 h
Assay [1] has as its system A549 NSCLC.
For assay [2], the system named is MCF7 breast.
Assay [3] has as its system OVCAR-4 ovarian.
Assay [4] relates to SF-539 CNS.
Assay [5] concerns SK-MEL-2 melanoma.
Assay [6] has as its system SK-MEL-28 melanoma.
Assay [7] deals with SNB-19 CNS.
Assay [8] has as its system SW-620 colon.
Assay [9] has as its system U251 CNS.
Assay [10] has as its system UACC-62 melanoma.

Structures are written as SMILES.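 Dose response: 5 concentrations. Exposure: 48 h. Format: 96-well plates. Endpoint: linear interpolation; highest concentration if not reached. GI50: concentration for 50% inhibition of growth. The concentration for full growth arrest is given as TGI.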

Consider `O=c1c(Oc2ccc(F)cc2F)cc2cnc(NC3CCOCC3)nc2n1C1CC1`, for which the GI50 in assay [1], in [2], in [3], in assay [4], in [5] and in assay [6] was more than 25 µM each time. In addition, the GI50 in assay [7], in [8], in assay [9] and in assay [10] was more than 25 µM throughout. In addition, the TGI in assay [1], in assay [2], in assay [3], in assay [4], in [5] and in [6] was more than 25 µM each time. Also, the TGI in assay [7], in assay [8], in assay [9] and in [10] was more than 25 µM in each case.
In the case of `O=C(O)CSc1cc(NS(=O)(=O)c2ccc(Br)cc2)c2ccccc2c1O`, the GI50 is 22.8 µM in [1]; 5.71 µM in [2]; 1.62 µM in assay [3]; 17.8 µM in [4]; 9.92 µM in [5]; 14.5 µM in assay [6]. Further, the GI50 was 17.1 µM in [7], 14.4 µM in assay [8], 15 µM in assay [9] and 7.81 µM in [10]. In addition, the TGI in assay [1] was found to be 42.6 µM; in assay [2], 19.8 µM; in assay [3], 3.05 µM; in [4] it was 32.8 µM; in assay [5], 28.6 µM; in [6] it was 29 µM. For the same compound, the TGI was determined as 34.2 µM in assay [7], 33.7 µM in assay [8], 30.9 µM in assay [9] and 23.4 µM in assay [10].
Consider `Oc1c(Br)cc(Cl)cc1C(c1cc(Cl)cc(Br)c1O)C(Cl)(Cl)Cl`, for which the GI50 in assay [1] was 3.13 µM; in [2], 2.83 µM; in [3] it was 2.86 µM; in assay [4] it was 3.15 µM; in assay [5], 2.31 µM; in assay [6], 3.7 µM. In addition, the GI50 was 3.13 µM in [7], 3.28 µM in assay [8], 2.18 µM in [9] and 1.94 µM in [10]. Moreover, the TGI in assay [1] worked out at 11.7 µM; in assay [2], 10.9 µM; in assay [3], 13.1 µM; in assay [4], 10.7 µM; in assay [5], 5.08 µM; in [6], 14.9 µM. Besides, the TGI in [7] came out at 15.9 µM; in assay [8], 13 µM; in assay [9], 10.9 µM; in assay [10] it was 8.99 µM.
For `CN1CCN(C(=O)/C=C/c2ccc([N+](=O)[O-])o2)CC1`, the GI50 is 18.8 µM in [1]; 10.9 µM in assay [2]; 14.2 µM in assay [3]; 15 µM in assay [4]; 6.5 µM in assay [5]; 9.59 µM in assay [6]. In addition, the GI50 in assay [7] is 38.1 µM; in assay [8], 15.8 µM; in [9], 17.1 µM; in assay [10], 11.1 µM. Further, the TGI in assay [1] came out at 41.5 µM; in assay [2] it was 38.1 µM; in assay [3] it was 27.9 µM; in assay [4], 45 µM; in assay [5], 29.6 µM; in [6], 49.3 µM. Moreover, the TGI in [7] was more than 100 µM; in assay [8], 37.1 µM; in assay [9], 55.1 µM; in [10], 23.4 µM.
Regarding `CC[C@]12C=CCN3CC[C@@]4(c5ccc(OC)cc5N(C)[C@H]4[C@@](O)(C(=O)OC)[C@@H]1OC(=O)CCCN1CCN(CCCC(=O)O[C@@H]4[C@]5(CC)C=CCN6CC[C@@]7(c8ccc(OC)cc8N(C)[C@H]7[C@@]4(O)C(=O)OC)[C@@H]65)CC1)[C@@H]32`, the GI50 in assay [1] is 1.31 µM; in assay [2], 0.548 µM; in assay [3], 1.11 µM; in assay [4], 1.38 µM; in assay [5], 1.88 µM; in assay [6], 1.4 µM. The GI50 in assay [7] is 1.23 µM; in assay [8] it was 1.6 µM; in [9] it was 1.35 µM; in [10], 1.68 µM. In addition, the TGI in [1] came out at 2.95 µM; in assay [2], 1.96 µM; in assay [3], 2.44 µM; in assay [4], 2.7 µM; in assay [5] it was 3.59 µM; in assay [6], 2.78 µM. Besides, the TGI in assay [7] came out at 2.59 µM; in assay [8], 3.21 µM; in [9] it was 2.86 µM; in [10] it was 3.13 µM.
Turning to `CNCc1cccc2c1OCCOCCOCCNS(=O)(=O)c1ccc(cc1)-c1cnc(N)c(n1)C(=O)N2`, the GI50 was 1.58 µM in assay [1]; 0.439 µM in assay [2]; 1.5 µM in [3]; 1.11 µM in assay [4]; 1.76 µM in [5]; 1.66 µM in [6]. Moreover, the GI50 is 2.45 µM in [7], 0.875 µM in assay [8], 0.772 µM in assay [9] and 1.61 µM in assay [10]. Also, the TGI in [1] stood at 4.82 µM; in [2], 5.11 µM; in assay [3], 6.42 µM; in [4] it was 2.38 µM; in assay [5], 4.41 µM; in assay [6] it was 3.27 µM. Moreover, the TGI in assay [7] was found to be 9.9 µM; in [8] it was 3.13 µM; in assay [9], 2.23 µM; in [10], 2.99 µM.
Take `COc1cc(/C=C/c2cc(/C=C/c3ccc(O)c(OC)c3)n(C(=O)Nc3ccc(C)cc3)n2)ccc1O`: the GI50 is 0.419 µM in assay [1]; 0.4 µM in assay [2]; 0.697 µM in assay [3]; 0.442 µM in assay [4]; 0.681 µM in assay [5]; 0.797 µM in [6]. The GI50 is 0.873 µM in [7], 0.465 µM in assay [8], 0.422 µM in [9] and 0.519 µM in [10]. Besides, the TGI in assay [1] was 4.6 µM; in assay [2] it was 2.97 µM; in assay [3], 5.95 µM; in [4], 2.47 µM; in assay [5], 3.97 µM; in assay [6], 6.87 µM. For the same compound, the TGI in assay [7] was 9.11 µM; in assay [8], 3.44 µM; in [9] it was 3.48 µM; in assay [10] it was 2.61 µM.
